From article PMC3230400, “Peroxisome Proliferator-Activated Receptor γ Is a Target for Halogenated Analogs of Bisphenol A” (Environmental Health Perspectives, 2011)
“Also recorded” adds a separate entry of the source.

Key:
Type in all cases: cell-based
ERα = target: T1, ERα (Homo sapiens, UniProt P03372); experiment: HGELN-ERα stable reporter cell luciferase assay; settings: for ranking order of estrogenic potency, ERα: HELN-ERα cell line; for agonistic activity toward ERα (luciferase): HGELN-ERα cells, relative to 10 nM E2; for ERα versus ERβ selectivity: HGELN-ERα vs HGELN-ERβ cells
T1 construct: expressed in transfected cells; host or cells: HGELN (HeLa-derived) cells, stably transfected
T1 sequence (P03372 1-595): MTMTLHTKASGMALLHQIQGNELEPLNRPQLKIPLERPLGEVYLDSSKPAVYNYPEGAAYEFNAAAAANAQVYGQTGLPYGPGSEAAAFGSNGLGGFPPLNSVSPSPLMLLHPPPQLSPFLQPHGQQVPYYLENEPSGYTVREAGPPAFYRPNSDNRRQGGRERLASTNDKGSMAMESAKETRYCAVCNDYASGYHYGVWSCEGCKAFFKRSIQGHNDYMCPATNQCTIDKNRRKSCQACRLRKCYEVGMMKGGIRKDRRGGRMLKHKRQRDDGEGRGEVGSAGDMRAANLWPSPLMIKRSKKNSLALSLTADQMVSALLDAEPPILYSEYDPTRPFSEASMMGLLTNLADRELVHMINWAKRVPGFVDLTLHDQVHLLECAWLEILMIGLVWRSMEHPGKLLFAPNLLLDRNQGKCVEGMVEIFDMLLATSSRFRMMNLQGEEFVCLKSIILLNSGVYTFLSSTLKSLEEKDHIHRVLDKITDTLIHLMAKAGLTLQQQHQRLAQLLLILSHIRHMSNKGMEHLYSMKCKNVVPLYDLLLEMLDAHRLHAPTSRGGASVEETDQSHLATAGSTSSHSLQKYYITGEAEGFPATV
Method: (§1) Reporter cell lines and stable gene expression assay. […] Briefly, reporter cells were seeded at a density of 20,000 cells/well in 96-well white opaque tissue culture plates and maintained in phenol-red–free Dulbecco’s modiﬁed Eagle’s medium (DMEM) supplemented with 5% dextran-coated, charcoal-treated fetal calf serum. Twenty-four hours later, culture medium was replaced with DMEM containing tested compounds. We performed assays in the absence of serum to avoid ligand capture by serum proteins. Sixteen hours after exposure, we replaced media with media containing 0.3 mM luciferin. Luminescence was measured in intact living cells for 2 sec in a Microbeta Wallac luminometer (PerkinElmer).

PPARγ [1] = target: T2, PPARγ (Homo sapiens, UniProt P37231); experiment: HGELN-PPARγ stable reporter cell luciferase assay; settings: HGELN-PPARγ cells; for activation of PPARγ (luciferase): relative to 100 nM rosiglitazone
T2 sequence (P37231 238-505 limits assumed): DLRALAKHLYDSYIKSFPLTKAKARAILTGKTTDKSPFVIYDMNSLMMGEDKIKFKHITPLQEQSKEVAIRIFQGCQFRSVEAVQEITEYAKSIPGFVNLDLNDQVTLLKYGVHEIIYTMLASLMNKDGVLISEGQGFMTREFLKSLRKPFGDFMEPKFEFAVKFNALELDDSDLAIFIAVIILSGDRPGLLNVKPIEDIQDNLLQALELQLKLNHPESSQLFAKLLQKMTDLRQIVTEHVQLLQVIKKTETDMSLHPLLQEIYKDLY
Method: as §1

ERβ = target: T3, ERβ (Homo sapiens, UniProt Q92731); experiment: HGELN-ERβ stable reporter cell luciferase assay; settings: for ranking order of estrogenic potency, ERβ: HELN-ERβ cell line; for agonistic activity toward ERβ (luciferase): HGELN-ERβ cells, relative to 10 nM E2
T3 construct: expressed in transfected cells; host or cells: HGELN (HeLa-derived) cells, stably transfected
Method: as §1

3T3L1 preadipocytes = experiment: 3T3L1 preadipocyte differentiation (Oil Red O staining); settings: for induction of adipogenesis (Oil Red O staining): 8-day treatment with 10 μg/mL insulin and ligand, TCBPA and TBBPA at 10 μM
Method: NIH3T3-L1 differentiation. Two-day postconfluent 3T3L1 preadipocytes (a gift from L. Fajas; Institut de Génétique Moléculaire, Montpellier, France) were induced to differentiate by 2-day treatment with a differentiation mixture (10 μg/mL insulin, 1 μM dexamethasone, 0.5 mM isobutylmethylxanthine) followed by 8-day treatment with 10 μg/mL insulin and PPARγ ligands. The medium was replaced every 48 hr. After differentiation, cells were stained with Oil Red O for morphological analyses, or RNA was extracted from the cells using the RNeasy RNA isolation kit (Qiagen, Courtaboeuf, France). For RNA extractions, four independent cultures were performed per condition. Reverse transcription was performed with random hexamers on 1 μg total RNA using SuperScript II reverse transcriptase (Invitrogen), and the reaction was diluted 100 times for amplification. Real-time polymerase chain reaction (PCR) quantification was then performed using SYBR Green technology (LightCycler; Roche Diagnostics, Meylan, France). Results were normalized to two housekeeping genes (18S and 36B4) and quantified using qBase (Roche Diagnostics).
Two-day postconfluent 3T3L1 cells were treated for 8 days with 10 μg/mL insulin with vehicle (0.1% DMSO) or the ligands as indicated. Rosi, rosiglitazone. (A) Entire wells imaged after Oil Red O staining. (B) Quantitative real-time PCR of PPARγ and adipocyte-specific fatty acid–binding protein AP2 expression levels in postconfluent 3T3-L1 cells treated with the ligands for 24 hr. Data were normalized to 18S or 36B4 controls and plotted as average fold induction ± SE (n = 3 per treatment).

[2] = system: PPARγ target genes (AP2, PPARγ) in 3T3-L1 cells; experiment: Real-time PCR of PPARγ target genes in 3T3-L1 cells
Method: Two-day postconfluent 3T3L1 preadipocytes (a gift from L. Fajas; Institut de Génétique Moléculaire, Montpellier, France) were induced to differentiate by 2-day treatment with a differentiation mixture (10 μg/mL insulin, 1 μM dexamethasone, 0.5 mM isobutylmethylxanthine) followed by 8-day treatment with 10 μg/mL insulin and PPARγ ligands. […] After differentiation, cells were stained with Oil Red O for morphological analyses, or RNA was extracted from the cells using the RNeasy RNA isolation kit (Qiagen, Courtaboeuf, France). […] Reverse transcription was performed with random hexamers on 1 μg total RNA using SuperScript II reverse transcriptase (Invitrogen), and the reaction was diluted 100 times for amplification. Real-time polymerase chain reaction (PCR) quantification was then performed using SYBR Green technology (LightCycler; Roche Diagnostics, Meylan, France). Results were normalized to two housekeeping genes (18S and 36B4) and quantified using qBase (Roche Diagnostics).
Two-day postconfluent 3T3L1 cells were treated for 8 days with 10 μg/mL insulin with vehicle (0.1% DMSO) or the ligands as indicated. […] (B) Quantitative real-time PCR of PPARγ and adipocyte-specific fatty acid–binding protein AP2 expression levels in postconfluent 3T3-L1 cells treated with the ligands for 24 hr.

PPARγ [3] = target: T2, PPARγ; experiment: Transient transactivation assay in HeLa cells, GAL4-hPPARγ; settings: 10 μM TBBPA, TCBPA, MEHP
zebrafish PPARγ = experiment: Transient transactivation assay in HeLa cells, GAL4-zebrafish PPARγ LBD; settings: 10 μM TBBPA, TCBPA, MEHP, 1 μM rosiglitazone

T3 sequence (Q92731 whole entry): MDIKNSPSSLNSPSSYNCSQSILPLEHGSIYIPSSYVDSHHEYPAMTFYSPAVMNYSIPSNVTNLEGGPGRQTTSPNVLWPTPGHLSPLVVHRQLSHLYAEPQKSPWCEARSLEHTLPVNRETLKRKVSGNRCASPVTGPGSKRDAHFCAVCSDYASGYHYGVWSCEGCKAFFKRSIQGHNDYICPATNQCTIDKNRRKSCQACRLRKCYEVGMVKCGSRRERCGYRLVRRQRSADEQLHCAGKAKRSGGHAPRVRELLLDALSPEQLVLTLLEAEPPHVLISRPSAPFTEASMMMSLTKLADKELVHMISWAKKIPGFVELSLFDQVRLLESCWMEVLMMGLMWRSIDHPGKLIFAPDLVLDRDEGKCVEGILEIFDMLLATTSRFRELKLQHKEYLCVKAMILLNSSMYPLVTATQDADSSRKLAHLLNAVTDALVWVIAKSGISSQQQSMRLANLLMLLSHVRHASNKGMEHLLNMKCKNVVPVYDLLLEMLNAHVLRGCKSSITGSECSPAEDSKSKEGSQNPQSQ

Molecule | ranking order of estrogenic potency, ERα (ERα) | ranking of ability to activate PPARγ (PPARγ [1]) | activation of PPARγ (luciferase) (PPARγ [1]) | ranking order of estrogenic potency, ERβ (ERβ) | agonistic activity toward ERα (luciferase) (ERα) | agonistic activity toward ERβ (luciferase) (ERβ) | induction of adipogenesis (Oil Red O staining) (3T3L1 preadipocytes) | other results
3,3´,5-tribromoBPA [triBBPA] | monoBBPA > diBBPA > triBBPA | TBBPA = triBBPA > diBBPA >>> monoBBPA | highest potency | monoBBPA > diBBPA > triBBPA | – | – | – | –
3,3´-dibromoBPA [diBBPA] | monoBBPA > diBBPA > triBBPA | TBBPA = triBBPA > diBBPA >>> monoBBPA | – | monoBBPA > diBBPA > triBBPA | highest transactivation efficiency | – | – | ERα versus ERβ selectivity (ERα): slight ERα selectivity
3-MonobromoBPA [monoBBPA] | monoBBPA > diBBPA > triBBPA | TBBPA = triBBPA > diBBPA >>> monoBBPA | – | monoBBPA > diBBPA > triBBPA | highest transactivation efficiency | – | – | ERα versus ERβ selectivity (ERα): slight ERα selectivity
CC(C)(c1ccc(O)cc1)c1ccc(O)cc1 [BPA, bisphenol A] | – | – | failed to activate; also recorded: absence of significant interaction | – | almost full agonistic activity; also recorded: highest transactivation efficiency | almost full agonistic activity | – | –
CC(C)(c1cc(Br)c(O)c(Br)c1)c1cc(Br)c(O)c(Br)c1 [TBBPA, 2,2-bis(3,5-dibromo-4-hydroxyphenyl)propane] | – | – | – | no estrogenic activity at all | – | little effect | induced adipogenesis | adipogenic action upon co-treatment with PPARγ antagonist CD5477 (3T3L1 preadipocytes; co-treatment with CD5477): inhibited the adipogenic action
CC(C)(c1cc(Cl)c(O)c(Cl)c1)c1cc(Cl)c(O)c(Cl)c1 [TCBPA, 2,2-bis(3,5-dichloro-4-hydroxyphenyl)propane] | – | – | partially activating PPARγ | – | – | partially activated | induced adipogenesis | AP2 expression level compared with rosiglitazone [2]: much lesser extent; activation of human PPARγ (transient transfection) (PPARγ [3]): activators; activation of zebrafish PPARγ (transient transfection) (zebrafish PPARγ): activated
CN(CCOc1ccc(CC2SC(=O)NC2=O)cc1)c1ccccn1 (centres unmarked) [rosiglitazone, reference compound] | – | – | – | – | – | – | strongly induced adipogenesis | activation of zebrafish PPARγ (transient transfection) (zebrafish PPARγ): completely inactive
